Tested on: HL-60
Test: Cytotoxicity against human HL60 cells assessed as inhibition of [3H]thymidine incorporation
Format: functional, cell-based

SMILES	IC50 [µM]
C[C@@H]1O[C@@H](O[C@H]2[C@H](OC(=O)[C@]34CCC(C)(C)C[C@H]3C3=CC[C@@H]5[C@@]6(C)CC[C@H](O[C@@H]7O[C@H](CO)[C@@H](O)[C@H](O)[C@H]7O)C(C)(C)[C@@H]6CC[C@@]5(C)[C@]3(C)C[C@H]4O)OC[C@H](O)[C@@H]2O)[C@H](O)[C@H](O)[C@H]1O[C@@H]1OC[C@@H](O)[C@H](O[C@@H]2OC[C@@H](O)[C@H](O)[C@H]2O)[C@H]1O [ASTERLINGULATOSIDE]	6.1
CC1(C)CC[C@]2(C(=O)O[C@@H]3OC[C@H](O)[C@H](O)[C@H]3O)[C@H](O)C[C@]3(C)C(=CC[C@@H]4[C@@]5(C)CC[C@H](O[C@@H]6O[C@H](CO)[C@@H](O)[C@H](O)[C@H]6O)C(C)(C)[C@@H]5CC[C@]43C)[C@@H]2C1 [ASTERLINGULATOSIDE A]	39
C[C@@H]1O[C@@H](O[C@H]2[C@H](OC(=O)[C@]34CCC(C)(C)C[C@H]3C3=CC[C@@H]5[C@@]6(C)CC[C@H](O[C@@H]7O[C@H](CO)[C@@H](O)[C@H](O)[C@H]7O)C(C)(C)[C@@H]6CC[C@@]5(C)[C@]3(C)C[C@H]4O)OC[C@H](O)[C@@H]2O)[C@H](O)[C@H](O)[C@H]1O[C@@H]1OC[C@@H](O)[C@H](O)[C@H]1O [ASTERLINGULATOSIDE C]	8.8
C[C@@H]1O[C@@H](O[C@H]2[C@H](OC(=O)[C@]34CCC(C)(C)C[C@H]3C3=CC[C@@H]5[C@@]6(C)CC[C@H](O[C@@H]7O[C@H](CO)[C@@H](O)[C@H](O)[C@H]7O)C(C)(C)[C@@H]6CC[C@@]5(C)[C@]3(C)C[C@H]4O)OC[C@H](O)[C@@H]2O)[C@H](O)[C@H](O)[C@H]1O [ASTERLINGULATOSIDE B]	70.4

Source: ChEMBL document CHEMBL1146437, “Asterlingulatosides C and D, cytotoxic triterpenoid saponins from Aster lingulatus” (J Nat Prod, 1997)
